Measurements from US12138254B2, “Chronic nightly dosing of lasmiditan for migraine prevention” (Eli Lilly and Company, priority 2018, dated 2024).

Tested on: dural plasma protein extravasation
Assay: Trigeminal stimulation-induced dural plasma protein extravasation (PPE) in rats
Type: in vivo, Sprague-Dawley rats
Description: Migraine is a painful condition thought to involve neurogenic inflammation of the dural membrane and activation of the trigeminal nervous system. The 5-HT1F receptor is widely expressed in the CNS and peripheral nerves, including the trigeminal ganglia, dorsal root ganglia and trigeminal nucleus caudalis. Plasma protein extravasation (PPE), one component of neurogenic inflammation, can be induced in the dura of rats by electrically stimulating the trigeminal ganglion. Considering the role of the trigeminal nerve in the physiology of migraine, this study is useful to characterize the ability of lasmiditan-hemisuccinate to block plasma protein extravasation in the dura of rats following electrical stimulation of the trigeminal ganglion.
To investigate the potential of lasmiditan to modify the dysfunction in the target tissue, the duration of effect following a single oral dose of lasmiditan-hemisuccinate was also determined. Electrical stimulation of the trigeminal ganglion of rats and guinea pigs can be used to induce neurogenic inflammation in the meninges (dura). Briefly, unilateral electrical stimulation of either the left or right trigeminal ganglion using electrodes implanted stereotaxically is used to induce ipsilateral neurogenic inflammation and the increased extravasation of plasma proteins.
Lasmiditan-hemisuccinate is dissolved in sterile water. All doses of lasmiditan are reported as free base equivalent doses, accounting for the weight of the salt. Envigo Sprague-Dawley, Sprague-Dawley male rats (250-350 grams, n=4/group) are fasted overnight prior to dosing. The animals are orally gavaged (2 mL/kg dose volume) with test compound or vehicle one hour prior to stimulation time and returned to their cages with only water available. Approximately 50 minutes post-dosing, the rats are anesthetized with Nembutal (65 mg/kg, ip.) and implanted with stainless steel stimulating electrodes (Rhodes Medical Systems, Inc.) to a depth of 9.2 mm. from the dura. The femoral vein is exposed and fluorescein isothiocyanate-labeled bovine serum albumin (FITC-BSA) (20 mg/kg, iv.), is injected into the femoral vein 2 minutes prior to stimulation. The FITC-BSA functions as a marker for protein extravasation. The left trigeminal ganglion is stimulated for 5 minutes at a current intensity of 1.0 mA (5 Hz, 5 msec pulse duration) with a Model S48 Grass Instrument Stimulator with PSIU6 photoelectric isolation unit (Grass-Telefactor). Five minutes following stimulation, a blood sample is collected by cardiac puncture and the rats are sacrificed by exsanguination with 40 ml of saline. One milliliter of blood is collected and placed in a 1.5 ml EDTA coated tube (Fisher Cat. #540734) on ice. Plasma is separated via centrifugation at 10,000 rpm (941 g) for thirty minutes at 4° C. The top of the skull is removed to collect the brain and dural membranes. The brain and plasma samples are frozen at −80° C. until thawed for compound quantification. The membrane samples are removed from both hemispheres, rinsed with water, and spread flat on microscope slides. The slides are dried for 15 minutes on a slide warmer, then the tissues are cover-slipped with a 70% glycerol/water solution. A fluorescence microscope (Zeiss) equipped with a grating monochromator and a spectrophotometer is used to quantify the amount of FITC-BSA dye in each dural sample. The extravasation induced by electrical stimulation of the trigeminal ganglion is an ipsilateral effect (i.e. occurs only on the side of the dura in which the trigeminal ganglion was stimulated). This allows the other (unstimulated) half of the dura to be used as the control. The ratio of extravasation in the dura from the stimulated side versus the unstimulated side is calculated and reported as the extravasation ratio for each animal. The mean extravasation ratio and standard error of the mean (SEM) are calculated for each treatment group. Controls yield a ratio of approximately 1.8. […]

## 2,4,6-trifluoro-N-[6-(1-methyl-piperidine-4-carbonyl)-pyridin-2-yl]-benzamide hemi-succinate salt [Lasmiditan-hemisuccinate]
1 mg/kg po, 1 hour post-dose
  inhibition of dural plasma protein extravasation vs vehicle: statistically different vs vehicle
10 mg/kg po, 1 hour post-dose
  inhibition of dural plasma protein extravasation vs vehicle: statistically different vs vehicle
One hour following oral administration to rats, 0.1-10 mg/kg
  inhibition of dural plasma protein extravasation: dose-dependently inhibits
Single 10 mg/kg po, 24 hours post-dose
  inhibition of dural plasma protein extravasation vs vehicle: significantly blocks
Single 10 mg/kg po, 48 hours post-dose
  inhibition of dural plasma protein extravasation vs vehicle: not effective
